# According to BindingDB's records for doi:10.1021/bi400945y (Johns Hopkins Bloomberg School of Public Health, 2013):
# Biological target: T1, Enoyl-acyl carrier reductase ENR (Toxoplasma gondii, UniProt Q6UCJ9)
# T1 sequence (Q6UCJ9 whole entry): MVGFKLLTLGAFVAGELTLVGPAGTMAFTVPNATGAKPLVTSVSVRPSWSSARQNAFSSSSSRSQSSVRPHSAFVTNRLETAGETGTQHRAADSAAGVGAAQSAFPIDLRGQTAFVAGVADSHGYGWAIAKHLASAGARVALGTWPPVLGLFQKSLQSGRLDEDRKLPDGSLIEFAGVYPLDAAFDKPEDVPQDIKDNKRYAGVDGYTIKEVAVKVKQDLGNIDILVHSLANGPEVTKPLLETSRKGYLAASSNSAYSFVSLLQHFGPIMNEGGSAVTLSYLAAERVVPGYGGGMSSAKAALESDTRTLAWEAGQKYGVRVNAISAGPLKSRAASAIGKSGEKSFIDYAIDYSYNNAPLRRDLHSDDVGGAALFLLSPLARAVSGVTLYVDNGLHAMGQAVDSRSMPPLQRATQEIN
# Test: TgENR Inhibition Assay
# Conditions: pH 7.5
row,SMILES,IC50 [nM]
1,Oc1cc(Cl)ccc1Oc1ccc(NCc2ccccc2)cc1Cl,13
2,Oc1ccc(Oc2ccc(Cl)cc2O)c(Cl)c1,3
3,N#Cc1ccccc1CNc1ccc(Oc2ccc(Cl)cc2O)c(Cl)c1,16
4,"CCc1ccc(Oc2ccc(Cl)cc2Cl)c(O)c1 [2‐(2,4‐dichlorophenoxy)‐5‐ethylphenol (11)]",8
5,"CCCCc1cn(Cc2ccc(Oc3ccc(Cl)cc3O)c(Cl)c2)nn1 [2‐{4‐[(4‐butyl‐1,2,3‐triazol‐1‐yl)methyl]‐2‐ chlorophenoxy}‐5‐chlorophenol (25)]",43
6,"N#Cc1ccc(Oc2ccc(Cl)cc2Cl)c(O)c1 [4‐(2,4‐dichlorophenoxy)‐3‐hydroxybenzonitrile (19)]",24
7,"Oc1cc(Cl)ccc1Oc1ccc(Cn2ccnn2)cc1Cl [5‐chloro‐2‐[2‐chloro‐4‐(1,2,3‐triazol‐1‐ ylmethyl)phenoxy]phenol (24)]",26
8,Oc1cc(Cl)ccc1Oc1ccc(CNc2ccccc2)cc1Cl [5‐chloro‐2‐{2‐chloro‐4‐ [(phenylamino)methyl]phenoxy}phenol (26)],31
9,"Cc1cc(CC(=O)NCc2ccc(Oc3ccc(Cl)cc3O)c(Cl)c2)on1 [N‐{[3‐chloro‐4‐(4‐chloro‐2‐ hydroxyphenoxy)phenyl]methyl}‐2‐(3‐methyl‐1,2‐ oxazol‐5‐yl)acetamide (28)]",33
10,"Cc1cc(C(=O)NCc2ccc(Oc3ccc(Cl)cc3O)c(Cl)c2)no1 [N‐{[3‐chloro‐4‐(4‐chloro‐2‐ hydroxyphenoxy)phenyl]methyl}‐5‐methyl‐1,2‐oxazole‐3‐ carboxamide (29)]",100
